Source: US20240076394A1, “MODULATING THE IMMUNE RESPONSE USING ANTI-CD30 ANTIBODY-DRUG CONJUGATES” (Seagen Inc., priority 2020, published 2024)
Entries after “also recorded” stand apart in the source; their conditions may differ.

Tests used:
CD30+ cell lines = conditions: in vitro; cited from earlier work
[1] = tested on: xenograft models of Hodgkin disease; conditions: SCID mouse xenograft models of Hodgkin disease; cited from earlier work
[2] = tested on: CD30+ inducible T regulatory cells (iTregs); assay: In vitro depletion of CD30+ inducible T regulatory cells (flow cytometry live cell counts); assay type: cell-based, human; conditions: iTregs from normal donors, CD3/CD28 beads 1:4 and 10 ng/ml IL-2, 4-5 days, titration of ADC; compared to non-binding control ADC hIgG-7782; FIG. 1A
Experimental: The ability of the anti-CD30 antibody-drug conjugate SGN-CD30C to deplete CD30+T regulatory (Tregs) was assessed in vitro. Inducible T regulatory cells (iTregs) were differentiated from cryopreserved CD4^+ T cells of two normal donors (Cellero, Bothell, Washington, Cat #1023) in X-Vivo 15 media (Lonza, Cat #04-418Q) supplemented with 50 ng/ml TGFβ1 (R&D, cat #100-B), 50 ng/ml IL-2 (R&D, Cat #202-IL/CF) and a 1:100 dilution of Lipid Mixture 1 (Sigma, Cat #L0288-100 ml) with CD3/CD28 beads (Miltenyi, Cat #130-095-345) at a 1:20 bead:cell ratio for 6 days at 37° C. and 5% CO2, followed by 2 days resting in X-Vivo 15 media only. Differentiated iTregs were then immunophenotyped prior to in vitro cytotoxicity assays with a viability dye and fluorescently labeled anti-human CD3, CD4, CD8, CD25 and Foxp3 (Biolegend and BD Pharmingen), and analyzed on an Attune NxT Flow Cytometer (Life Technologies). Following differentiation, the iTreg populations were 38% and 53% CD25^+FoxP3^+. Inducible Tregs from 3 additional normal donors were also ordered directly from Cellero (Cat #1042). […]

[3] = tested on: CD4+CD127lowCD25+ peripheral blood Tregs (CD30+); assay: In vitro depletion of CD30+ peripheral blood T regulatory cells (flow cytometry live cell counts); assay type: cell-based, human; conditions: peripheral blood Tregs from 2 normal donors, CD3/CD28 beads 1:4 and 10 ng/ml IL-2, 4-5 days, titration of ADC; compared to non-binding control ADC hIgG-7782; FIG. 1B
Experimental: Cryopreserved inducible Tregs from 5 normal donors and CD4^+CD127^lowCD25^+ peripheral blood Tregs from 2 normal donors (Cellero and Stem Cell Technologies) were washed and resuspended in RPMI 1640 media containing 10% FBS and put into culture with CD3/CD28 beads at a 1:4 bead:cell ratio and 10 ng/ml IL-2 for 4-5 days in a 96-well round bottom plate at 37° C. and 5% CO2 in a titration of cAC10-7782 or non-specific control hIgG-7782. At the end of the incubation, cells were washed and stained with a Zombie Aqua viability dye and CD30 PE (Biolegend), and both total and CD30^+ live cell counts were determined using an Attune Nxt Flow cytometer. Untreated inducible Tregs were 37-80% CD30^+ and peripheral Tregs were 33-68% CD30^+ at the conclusion of the assay.
Cell counts are shown as the percent of untreated control.

cAC10: chimeric IgG1 monoclonal antibody that specifically binds CD30
growth arrest of CD30+ cell lines (CD30+ cell lines): induces growth arrest | antitumor activity [1]: pronounced antitumor activity

B1: SGN-CD30C: antibody-drug conjugate of Formula (IC): L is anti-CD30 antibody brentuximab, y is 1, z is 8, p is 8 (conjugate)
VH: QIQLQQSGPEVVKPGASVKISCKASGYTFTDYYITWVKQKPGQGLEWIGWIYPGSGNTKYNEKFKGKATLTVDTSSSTAFMQLSSLTSEDTAVYFCANYGNYWFAYWGQGTQVTVSA
VL: DIVLTQSPASLAVSLGQRATISCKASQSVDFDGDSYMNWYQQKPGQPPKVLIYAASNLESGIPARFSGSGSGTDFTLNIHPVEEEDAATYYCQQSNEDPWTFGGGTKLEIK
total CD30+ iTreg count (percent of untreated control) [2]: depleted; also recorded: dose-dependent reduction | peripheral blood CD30+ Treg count (percent of untreated control) [3]: depleted; also recorded: dose-dependent reduction
